This is an account of results in patent US6906078B2, “Method of using (H+/K+) ATPase inhibitors as antiviral agents” (Pharmacia Corporation, priority 1994, dated 2005).

In one data set the target is T1, (H+/K+)-ATPase (Canis lupus familiaris, UniProt P50996).
T1 construct: The microsomes retained at the 15%-30% sucrose interface, after centrifugation at 250,000×g for sixty minutes, were used as the source of (H^+/K^+)-ATPase; from tissue; host or cells: gastric glandular mucosa of mongrel dogs (microsomal fraction, lyophilized)
T1 sequence (P50996 whole entry): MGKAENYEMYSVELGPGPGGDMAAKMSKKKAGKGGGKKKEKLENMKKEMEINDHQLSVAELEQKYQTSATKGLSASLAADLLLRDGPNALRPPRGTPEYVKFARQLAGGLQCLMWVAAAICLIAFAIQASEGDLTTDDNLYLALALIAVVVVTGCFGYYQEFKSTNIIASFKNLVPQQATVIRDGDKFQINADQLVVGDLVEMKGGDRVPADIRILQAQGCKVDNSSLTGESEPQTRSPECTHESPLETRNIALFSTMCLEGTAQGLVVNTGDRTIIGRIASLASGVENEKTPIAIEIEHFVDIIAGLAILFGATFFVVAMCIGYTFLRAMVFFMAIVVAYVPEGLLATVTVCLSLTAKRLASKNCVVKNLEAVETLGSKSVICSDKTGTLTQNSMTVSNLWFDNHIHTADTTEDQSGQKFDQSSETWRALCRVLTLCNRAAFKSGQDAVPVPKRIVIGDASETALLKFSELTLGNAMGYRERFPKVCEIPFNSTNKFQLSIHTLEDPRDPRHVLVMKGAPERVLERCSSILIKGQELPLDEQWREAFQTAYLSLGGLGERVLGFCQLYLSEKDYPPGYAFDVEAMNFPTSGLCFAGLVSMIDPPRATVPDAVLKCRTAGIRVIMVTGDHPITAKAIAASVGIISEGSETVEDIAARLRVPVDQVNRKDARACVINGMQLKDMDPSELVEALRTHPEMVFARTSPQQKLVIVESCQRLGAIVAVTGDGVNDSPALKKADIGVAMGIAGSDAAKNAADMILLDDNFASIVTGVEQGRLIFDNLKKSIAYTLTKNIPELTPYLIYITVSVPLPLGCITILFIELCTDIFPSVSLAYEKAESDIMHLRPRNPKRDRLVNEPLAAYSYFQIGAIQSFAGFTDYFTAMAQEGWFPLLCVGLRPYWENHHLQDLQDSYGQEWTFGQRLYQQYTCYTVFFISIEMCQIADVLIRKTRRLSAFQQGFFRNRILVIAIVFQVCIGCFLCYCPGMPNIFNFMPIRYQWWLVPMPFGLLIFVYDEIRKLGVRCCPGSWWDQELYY
T1 sequence (P33704 whole entry partner): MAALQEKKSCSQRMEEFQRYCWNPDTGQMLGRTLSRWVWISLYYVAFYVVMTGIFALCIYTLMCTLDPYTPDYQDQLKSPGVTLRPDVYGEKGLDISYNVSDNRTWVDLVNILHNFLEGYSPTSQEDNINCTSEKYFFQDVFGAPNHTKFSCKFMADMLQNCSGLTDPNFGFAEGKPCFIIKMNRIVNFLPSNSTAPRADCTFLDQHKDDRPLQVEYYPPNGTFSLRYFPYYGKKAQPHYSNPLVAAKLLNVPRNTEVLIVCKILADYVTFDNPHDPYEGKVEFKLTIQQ
The data set is described as follows: Inhibition of (H+/K+)-ATPase from canine gastric mucosa (inorganic phosphate release). In kind it is biochemical. To be noted: canine gastric mucosa microsomes, pH 6.0, 30 min preincubation at 37° C.; read-out: (H+/K+)-ATPase IC50. As to the method: Mongrel dogs weighing 15 to 25 kilograms were fasted for twenty-four hours, with water provided ad libitum. The animals were anesthetized with pentobarbital and the stomachs were removed. Subsequent tissue manipulations and subcellular fractionations were performed at 0° C. to 4° C. After the stomachs were cut open and rinsed with tap water, the antral and cardiac regions were removed and the remaining tissue was rinsed three times in saline. The glandular mucosa was removed mechanically, chopped finely in a medium containing 10 mM Tris hydrochloride (pH 7.4) and 250 mM sucrose, and homogenized. The homogenate was centrifuged at 20,000×g for twenty minutes and the pellet discarded. The supernatant was then centrifuged at 150,000×g for ninety minutes and the supernatant discarded. The pellet was resuspended in the Tris-HCl/sucrose medium by homogenization. Part (2 ml) of the resultant microsomal suspension was layered onto a step gradient consisting of 9 ml of 15% sucrose above 12 ml of 30% sucrose, each sucrose solution being buffered with 10 mM Tris hydrochloride (pH 7.4) containing 0.01% sodium azide. The microsomes retained at the 15%-30% sucrose interface, after centrifugation at 250,000×g for sixty minutes, were used as the source of (H^+/K^+)-ATPase. Microsomal preparations were lyophilized, a process that assured potassium ion permiability, and stored at −10° C. until used.
(H^+/K^+)-ATPase activity for each test compound was determined, in duplicate, by measuring the release of inorganic phosphate, which was assayed according to the method of J. ChandraRajan and L. Klein, Anal. Biochem., 72 , 407 (1976). The (H^+/K^+)-ATPase assay medium consisted of 20 mm mes-Tris (pH 6.0), 5 mM magnesium chloride, 25 mM sucrose, and 4 mM Tris-ATP with or without 20 mM potassium chloride in a total volume of 2 ml. Microsomal suspensions (20 to 60 mcl, containing about 25 mcg protein) were added to the assay medium, without Tris-ATP, and then preincubated with a test compound for thirty minutes at 37° C. The assay was initiated by adding Tris-ATP and the mixture was incubated another thirty minutes at 37° C. A 200-mcl aliquot of the assay mixture was then added to 1.4 ml of a solution consisting of 0.1 M sodium acetate (pH 4.0) and 10% sodium dodecylsulfate, followed by the addition of 200 mcl each of 1% ammonium molybdate and 1% ascorbic acid. At least fifteen minutes later, the optical absorbance at 870 nm (which was proportional to inorganic phosphate concentration up to 100 nmoles per tube, as determined by a standard curve) was obtained. Enzyme activity was linear with incubation time.
(H^+/K^+)-ATPase activity is represented by the difference between the measured activities in the presence of potassium-ion (K^+-stimulated) and in the absence of potassium ion (basal).

Consider `COc1ccc(N)c(CSc2nc3ccccc3[nH]2)c1.Cl.Cl`, for which the melting point lay in the range of 206 to 208 °C.
On to `CCOc1ccc2[nH]c(SCc3ccccc3N)nc2c1.O` (hydrate or solvate), for which the melting point lay within 87 to 89 °C.
The same measure, in the same setting: to `Cc1cc2nc([S+]([O-])Cc3ccccc3N)[nH]c2cc1C` (stereo not drawn) (hydrate or solvate) [Example 10, 2-[[(5,6-Dimethyl-1H-benzimidazol-2-yl)sulfinyl]methyl]benzenamine ¼ hydrate] belongs 179 to 181 °C; to `Cc1cccc(N)c1C[S+]([O-])c1nc2ccccc2[nH]1` (stereo not drawn) (hydrate or solvate) [Example 24, 2-[(1H-Benzimidazol-2-ylsulfinyl)methyl]-3-methylbenzenamine ¼ hydrate], 152 to 153 °C; to `CNc1ccccc1C[S+]([O-])c1nc2ccccc2[nH]1.O` (stereo not drawn) (hydrate or solvate) [Example 32, 2-[(1H-Benzimidazol-2-ylsulfinyl)methyl]-N-methylbenzenamine monohydrate], 117 to 120 °C.
Regarding `Cc1ccc(C[S+]([O-])c2nc3ccccc3[nH]2)c(N)c1C` (stereo not drawn) (hydrate or solvate) [Example 53, 2-[(1H-Benzimidazol-2-ylsulfinyl)methyl]-5,6-dimethylbenzenamine ¼ hydrate], the melting point is 160 °C (dec.).
Still for that read-out and setting: as for `Cc1ccc(C)c(C[S+]([O-])c2nc3ccccc3[nH]2)c1N.O` (stereo not drawn) (hydrate or solvate) [Example 55, 2-[(1H-Benzimidazol-2-ylsulfinyl)methyl]-3,6-dimethylbenzenamine monohydrate], the figure is 144 to 145 °C; as for `CN(C)c1ccccc1CSc1nc2ccccc2[nH]1` [Example 1, 2-[(1H-Benzimidazol-2-ylthio)methyl]-N,N-dimethylbenzenamine], 167 to 170 °C.
The same measure, in the same setting: as for `Cc1cccc2[nH]c(SCc3ccccc3N)nc12` [Example 7, 2-[[(4-Methyl-1H-benzimidazol-2-yl)thio]methyl]benzenamine], the figure is 125 to 127 °C; as for `COc1ccc2[nH]c(SCc3ccccc3N)nc2c1` [Example 11, 2-[[(5-methoxy-1H-benzimidazol-2-yl)thio]methyl]benzenamine], 140 to 142 °C; as for `Nc1ccc(Cl)cc1CSc1nc2ccccc2[nH]1` [Example 15, 2-[(1H-Benzimidazol-2-ylthio)methyl]-4-chlorobenzenamine], 114 to 118 °C.
`Nc1cc(Cl)ccc1CSc1nc2ccccc2[nH]1` [Example 17, 2-[(1H-Benzimidazol-2-ylthio)methyl]-5-chlorobenzenamine] returned a melting point of 158 to 160.5 °C.
On the same count and under the same terms, to `Cc1cccc(CSc2nc3ccccc3[nH]2)c1N` [Example 27, 2-[(1H-Benzimidazol-2-ylthio)methyl]-6-methylbenzenamine] belongs 130 to 134 °C; to `Cc1cc(C)c(N)c(CSc2nc3ccccc3[nH]2)c1` [Example 29, 2-[(1H-Benzimidazol-2-ylthio)methyl]-4,6-dimethylbenzenamine], 139 to 141 °C.
Consider `Cc1cc(C)c(N)c(C[S+]([O-])c2nc3ccccc3[nH]2)c1` (stereo not drawn) [Example 30, 2-[(1H-Benzimidazol-2-ylsulfinyl)methyl]-4,6-dimethylbenzenamine hemihydrate], for which the IC50 on (H+/K+)-ATPase amounted to 0.85 µM.
Compound `CNc1ccccc1CSc1nc2ccccc2[nH]1` [Example 31, 2-[(1H-Benzimidazol-2-ylthio)methyl]-N-methylbenzenamine] came in with a melting point of 109 to 112 °C.
Regarding `Cc1ccc(C)c(C[S+]([O-])c2nc3ccccc3[nH]2)c1N` (stereo not drawn) [Example 55, 2-[(1H-Benzimidazol-2-ylsulfinyl)methyl]-3,6-dimethylbenzenamine monohydrate], on (H+/K+)-ATPase, the IC50 is 0.82 µM.
`Cc1ccc2[nH]c([S+]([O-])Cc3ccc(C)c(C)c3N)nc2c1` (stereo not drawn) [Example 63, 2-[[(5-Methyl-1H-benzimidazol-2-yl)sulfinyl]-methyl]-5,6-dimethylbenzenamine hemihydrate]: the IC50 at (H+/K+)-ATPase was found to be 0.71 µM.
Same read-out and setting: to `Cc1ccc(C)c(C[S+]([O-])c2nc3cc(C(F)(F)F)ccc3[nH]2)c1N` (stereo not drawn) [Example 65] belongs 1.5 µM.
Still for that read-out and setting: as for `COc1cccc(C[S+]([O-])c2nc3cc(C(F)(F)F)ccc3[nH]2)c1N` (stereo not drawn) [Example 67], the figure is 8.5 µM; as for `COc1cc2nc([S+]([O-])Cc3cc(C)ccc3N)[nH]c2cc1OC` (stereo not drawn) [Example 75], 120 µM.
The same measure, in the same setting: to `Cc1cc(N)c(C[S+]([O-])c2nc3ccccc3[nH]2)c(C)c1C` (stereo not drawn) [Example 77, 2-[(1H-Benzimidazol-2-ylsulfinyl)methyl]-3,4,5-trimethylbenzenamine hemihydrate] belongs 16 µM; to `Cc1cccc2[nH]c([S+]([O-])Cc3cccc(N)n3)nc12` (stereo not drawn) [Example 87, 6-[[(4-Methyl-1H-benzimidazol-2-yl)-sulfinyl]methyl]-2-pyridinamine], 2.2 µM.
On to `Cc1ccc2[nH]c([S+]([O-])Cc3cccc(N)n3)nc2c1` (stereo not drawn) [Example 89, 6-[[(5-Methyl-1H-benzimidazol-2-yl)-sulfinyl]methyl]-2-pyridinamine], for which, at (H+/K+)-ATPase, the IC50 is 1.68 µM.
On the same count and under the same terms, as for `Nc1cccc(C[S+]([O-])c2nc3cc(Cl)ccc3[nH]2)n1` (stereo not drawn) [Example 93, 6-[[(5-Chloro-1H-benzimidazol-2-yl)-sulfinyl]methyl]-2-pyridinamine], the figure is 6.9 µM; as for `Nc1cccc(C[S+]([O-])c2nc3cc(C(F)(F)F)ccc3[nH]2)n1` (stereo not drawn) [Example 95, 6-[[[5-(Trifluoromethyl)-1H-benzimidazol-2-yl]sulfinyl]methyl]-2-pyridinamine], 6.95 µM; as for `CCOc1ccc2[nH]c([S+]([O-])Cc3cccc(N)n3)nc2c1` (stereo not drawn) [Example 97, 6-[[(5-Ethoxy-1H-benzimidazol-2-yl)-sulfinyl]methyl]-2-pyridinamine], 3.1 µM.
On the same count and under the same terms, as for `COc1cc2nc([S+]([O-])Cc3cccc(N)n3)[nH]c2cc1OC` (stereo not drawn) [Example 99, 6-[[(5,6-Dimethoxy-1H-benzimidazol-2-yl)-sulfinyl]methyl]-2-pyridinamine ¼ hydrate], the figure is 23.7 µM; as for `Cc1cc2nc([S+]([O-])Cc3cccc(N)n3)[nH]c2cc1C` (stereo not drawn) [Example 101, 6-[[(5,6-Dimethyl-1H-benzimidazol-2-yl)-sulfinyl]methyl]-2-pyridinamine], 0.72 µM.
`Cc1cc(C)c2nc([S+]([O-])Cc3cccc(N)n3)[nH]c2c1` (stereo not drawn) [Example 103, 6-[[(4,6-Dimethyl-1H-benzimidazol-2-yl)-sulfinyl]methyl]-2-pyridinamine]: at (H+/K+)-ATPase, the IC50 stood at 1.8 µM.
The same measure, in the same setting: as for `Nc1cccc(C[S+]([O-])c2nc3cc(CO)ccc3[nH]2)n1` (stereo not drawn) [Example 105, 6-[[[5-(Hydroxymethyl)-1H-benzimidazol-2-yl]sulfinyl]methyl]-2-pyridinamine ¼ hydrate], the figure is 9.5 µM.
As to `CC(C)(C)CNc1cccc(C[S+]([O-])c2nc3ccccc3[nH]2)n1` (stereo not drawn) [Example 107, 6-[(1H-Benzimidazol-2-ylsulfinyl)methyl]-N-(2,2-dimethylpropyl)-2-pyridinamine ¼ hydrate], on (H+/K+)-ATPase, the IC50 was determined as 9.1 µM.
The same measure, in the same setting: to `Nc1ccc(C[S+]([O-])c2nc3ccccc3[nH]2)cn1` (stereo not drawn) [Example 111, 5-[(1H-Benzimidazol-2-ylsulfinyl)methyl]-2-pyridinamine ¼ hydrate] belongs 34.8 µM.
